Source: patent publication US20090048314A1, “TREATMENT OF DUCHENNE MUSCULAR DYSTROPHY” (priority 2007, published 2009)

How the values were obtained:
[1] = Slurrying experiment (single form) in methanol, thermodynamic stability; type: physicochemical; conditions: for polymorphic form after slurrying (XRPD): slurried in methanol for four days at 25° C.
Procedure: The stability of the various solid forms of 5-(ethylsulfonyl)-2-(naphthalen-2-yl)benzo[d]oxazole was investigated by stirring samples of each and mixtures thereof in methanol for defined time periods.
Approximately 10 mg of two polymorphic forms was slurried in 0.25 ml of methanol for 4 days at either room temperature or 60° C. The supernatant liquor was then removed and the resulting solid was dried under vacuum for 24 hrs.
Approximately 2 mg of sample was gently compressed on the XRPD zero back ground single obliquely cut silica sample holder. The sample was then loaded into a Philips X-Pert MPD diffractometer and analysed using the following experimental conditions:
Tube anode: Cu Generator tension: 40 kV Tube current: 40 mA Wavelength alpha1: 1.5406 A Wavelength alpha2: 1.5444 A Start angle [2θ]: 5 End angle [2θ]: 35 Time per step: 2.5 seconds Scan step size: 0.06

Utrophin A promoter = experiment: Luciferase reporter assay (murine H2K cells); type: cell-based, mouse; conditions: H2K/mdx/Utro A reporter cells, final concentration 10 μM, 48 hrs
Procedure: The cell line used for the screen is an immortalized mdx mouse H2K cell line that has been stably transfected with a plasmid containing 5 kb fragment of the Utrophin A promoter including the first untranslated exon linked to a luciferase reporter gene (see FIG. 26). Under conditions of low temperature and interferon containing media, the cells remain as myoblasts. These are plated into 96 well plates and cultured in the presence of compound for three days. The level of luciferase is then determined by cell lysis and reading of the light output from the expressed luciferase gene utilising a plate luminometer. The H2K/mdx/Utro A reporter cell line was passaged twice a week until ≦30% confluent. The cells were grown at 33° C. in the presence of 10% CO2 To remove the myoblasts for platting, they were incubated with Trypsin/EDTA until the monolayer started to detach. The H2K/mdx/Utro A reporter cell line cells were plated out into 96 well plates (Falcon 353296, white opaque) at a density of approximately 5000 cells/well in 190 μl normal growth medium. The plates were then incubated at 33° C. in the presence of 10% CO2 for 24 hrs. […] The plates were then incubated for a further 48 hrs Cells were then lysed in situ following the manufacture's protocols (Promega Steady-Glo Luciferase Assay System (E2520). Then counted for 10 seconds using a plate luminometer (Victor1420).

polymorphic form after slurrying (XRPD) [1]	polymorphic form after slurrying (XRPD) ([1]; listed as Polymorphic form 1)	stability compared with previously known forms ([1]; stirring in methanol)	Compound	polymorphic form after slurrying (XRPD) ([1]; listed as Polymorphic form 2)	Biological activity in luciferase reporter assay relative to control (Utrophin A promoter)
retains its structure	no change in the polymorphic form	increased stability	CCS(=O)(=O)c1ccc2oc(-c3ccc4ccccc4c3)nc2c1 [polymorphic form 1, 5-(ethylsulfonyl)-2-(naphthalen-2-yl)benzo[d]oxazole]		
converted into polymorphic form 1			CCS(=O)(=O)c1ccc2oc(-c3ccc4ccccc4c3)nc2c1 [polymorphic form 2, 5-(ethylsulfonyl)-2-(naphthalen-2-yl)benzo[d]oxazole]	polymorphic form 1 has converted to polymorphic form 2	
			CCS(=O)(=O)c1ccc2oc(-c3ccc4ccccc4c3)nc2c1 [5-(ethylsulfonyl)-2-(naphthalen-2-yl)benzo[d]oxazole]		+++ (Between 301% and 400% relative to control)
